Test results published in US6809109B2, “2, 4-disubstituted-pyridine N-oxides useful as HIV reverse transcriptase inhibitors” (Bristol-Myers Squibb Company, priority 2002, dated 2004).
In brackets after ≈: the same amount, converted by molar mass.

System: HIV-1 (RF)
Assay: HIV RNA assay, microplate based compound evaluation in HIV-1 infected MT-2 cells
Assay type: cell-based
Conditions: Human immunodeficiency virus 1, MT2, 72 h; HIV-1 (RF) infected MT-2 cells, 3 days of culture; value used to standardize the virus inoculum; read-out: IC90 (concentration of compound required to reduce the HIV RNA level by 90%)
Protocol: Plasmid pDAB 72 containing both gag and pol sequences of BH10 (bp 113-1816) cloned into PTZ 19R was prepared according to Erickson-Viitanen et al. AIDS Research and Human Retroviruses 1989, 5, 577. The plasmid was linearized with Bam HI prior to the generation of in vitro RNA transcripts using the Riboprobe Gemini system II kit (Promega) with T7 RNA polymerase. Synthesized RNA was purified by treatment with RNase free DNAse (Promega), phenol-chloroform extraction, and ethanol precipitation. RNA transcripts were dissolved in water, and stored at −70° C. The concentration of RNA was determined from the A260.
Biotinylated capture probes were purified by HPLC after synthesis on an Applied Biosystems (Foster City, Calif.) DNA synthesizer by addition of biotin to the 5′ terminal end of the oligonucleotide, using the biotin-phosphoramidite reagent of Cocuzza, Tet. Lett. 1989, 30, 6287. […]
MT-2 and MT-4 cells were maintained in RPMI 1640 supplemented with 5% fetal calf serum (FCS) for MT-2 cells or 10% FCS for MT-4 cells, 2 mM L-glutamine and 50 μg/mL gentamycin, all from Gibco. […] Infectious titers of HIV-1(RF) stocks were 1-3×10^7 PFU (plaque forming units)/mL as measured by plaque assay on MT-2 cells (see below). […]

With `Nc1ccn([C@H]2CC[C@@H](CO)O2)c(=O)n1` [ddC, dideoxycytidine] the IC90 was 0.2 µg/mL (≈ 0.947 µM).
